Reference: publication PMC8773338, “Discovery Potent of Thiazolidinedione Derivatives as Antioxidant, α-Amylase Inhibitor, and Antidiabetic Agent” (Biomedicines, 2021)
≈ marks a conversion by molar mass, not a printed value.

Assays:
[1] = tested on: alloxan-induced diabetic rat model; assay: serum lipid profile in alloxan-induced diabetic rats; format: in vivo; details: for CH level: versus normal animals; for serum CH level decrease: compared to the diabetic control group; for LDL value: versus normal value
Protocol: The blood samples (0.5 mL) were withdrawn from the retro-orbital plexus of each rat and the other steps adapted for measuring the biochemical analysis are shown in (Supplementary Materials).
A serious side effect related to diabetes is Hyperlipidemia. Insulin deficiency promotes the adipocytes to generate a fatty acid, hepatic phospholipids and cholesterol. Thus, we measured the levels of (cholesterol “CH”, triglyceride “TG”, high, low and very-low- and high/low and very low density lipoproteins “HDL, LDL and VLDL”) in serum for alloxan-loaded diabetes. […] The serum CH. Level decreased by 40%, 32%, 40%, 48%, 52%, and 43% for 3–6, 9, and 11, respectively, compared to the diabetic control group (Figure 7).
Figure 7 The level of Ch (cholesterol), TG (triglyceride), HDL (high density lipoprotein), LDL (low density lipoprotein) and VLDL (very low density lipoprotein) in serum of hyperglycemic loaded rats. […] Data analyzed by one way ANOVA followed by LSD test and expressed as mean ± SEM from five observations.
2007) dissolved in normal saline (Bodade et al., 2013). The animals were allowed to drink 5% glucose solution overnight to overcome the drug induced hypoglycemia (Gandhi and Sasikumar, 2012; Pareek etal., 2009). Blood samples were taken 48 h after injection of alloxan to ensure that diabetes has been induced (Vijayan et al., 2013), and fasting plasma glucose level of rats was determined using glucose strips. Rats with plasma glucose concentration N 300 mg/dl (Gadadare et al., 2015) were considered diabetic and included in […]
The blood samples (0.5 ml) were withdrawn from the retro-orbital plexus of each rat under mild anesthesia using a glass capillary tube after fasting for 6 h. Blood samples were centrifuged at 3000 rpm for 15 min. The serum was kept at −80 °C until analyzed. Speciﬁc reagent kits were used to determine levels of serum triglyceride (TG), serum cholesterol (CH), serum low density lipoproteins (LDL), serum high density lipoproteins (HDL) for assessing the lipid proﬁle.
(§1) Data are expressed as mean ± S.E. Data analysis was done using one way analysis of variance (ANOVA) followed by least significant difference (LSD) test for multiple comparisons. Difference was considered significant when p is less than 0.05. SPSS (version 11) program was used to carry out these statistical tests.

[2] = tested on: alloxan-induced diabetic rat model; assay: blood glucose level in alloxan-induced diabetic rat model; format: in vivo; details: for reduction percentage of blood glucose level: 30-day treatment protocol, compared with the normal control
Protocol: Healthy male albino Wistar rats (150 ± 20 g) have been obtained as mentioned in Supplementary Materials.
The animals were kept fasting overnight (12 h) before induction of diabetes, which was induced in rats as reported and mentioned in Supplementary Materials.
We obtained the blood samples from the tail vein of all rats, the blood-glucose-level “BGLs” were measured and monitored in all treatment groups at days 0 (basal), 2th, 4th, 15th, and 30th as reported.
This study used an alloxan-induced diabetic rat model to test the anti-hyperglycemic action of substances (3–6, 9, 11). […] The BGL was monitored for each tested compound at three different doses (50, 100, and 250 μ/Kg) and for five experimental period durations (0, 2, 4, 15, 30 days). […]
The animals were kept fasting overnight (12 h) before induction of diabetes. […]
as §1

[3] = tested on: alloxan-induced diabetic rat model; details: Wistar (albino), in vivo, 30 days
Excerpt: This study used an alloxan-induced diabetic rat model to test the anti-hyperglycemic action of substances (3–6, 9, 11). […] The BGL was monitored for each tested compound at three different doses (50, 100, and 250 μ/Kg) and for five experimental period durations (0, 2, 4, 15, 30 days).
At 50 μ/Kg, we observed no mortality during any of the experiment periods for all tested compounds.
Data analyzed by one way ANOVA followed by LSD test and expressed as mean ± SEM from five observations. TEXT PRINTED IN THE PICTURE: 3: Mortilaty: 20% (250 (m/Kg)); Mortilaty: 10% (100 (m/Kg)); Mortilaty: 0% (50 (m/Kg)) | 4: Mortilaty: 20% (250 (m/Kg)); Mortilaty: 10% (100 (m/Kg)); Mortilaty: 0% (50 (m/Kg)) | 5: Mortilaty: 30% (250 (m/Kg)); Mortilaty: 20% (100 (m/Kg)); Mortilaty: 0% (50 (m/Kg)) | 6: Mortilaty: 20% (250 (m/Kg)); Mortilaty: 10% (100 (m/Kg)); Mortilaty: 0% (50 (m/Kg)) | 9: Mortilaty: 20% (250 (m/Kg)); Mortilaty: 10% (100 (m/Kg)); Mortilaty: 0% (50 (m/Kg)) | 11: Mortilaty: 20% (250 (m/Kg)); Mortilaty: 10% (100 (m/Kg)); Mortilaty: 0% (50 (m/Kg)) DOUBTS OF THE COPYIST ABOUT THIS PICTURE: The control groups NO. (labels 0%, 0%, 0%, overlapping) and DC (labels 50%, 50% and a third that reads 50% or 60%, partly hidden) are not compounds and were left out. / 3, 4, 5, 6, 9, 11, Mortilaty at 50 (m/Kg): the 0% labels are partly overlapped by neighbouring bars and labels; 0% is the best reading. / Which label belongs to which dose series was judged from its position over the bars; several labels overlap.

[4] = DPPH radical scavenging activity; details: concentrations 0.16-1000 µg/mL
Protocol: The assay of 2,2-Diphenyl-1-picrylhydrazyl radical (DPPH) was performed according to the method at.
We examined the antioxidant activity of the (3–6, 9, and 11) hybrids using the stable DPPH assay. The antioxidant result was represented as IC50 (the concentration is essential for 50% reduction in the power of H-donation or radical scavenging). […] The increasing scavenging activity may be due to the stabilization of the lone pair in the conjugated system through the presence of the terminal carbonyl and thiazolidinone groups.

α-amylase = molecular target: T1, α-amylase (Homo sapiens, UniProt P04746); assay: in vitro inhibition of α-amylase assay; format: biochemical; details: six concentrations 5-40 µg/mL, non-linear regression
T1 sequence (P04746 16-511): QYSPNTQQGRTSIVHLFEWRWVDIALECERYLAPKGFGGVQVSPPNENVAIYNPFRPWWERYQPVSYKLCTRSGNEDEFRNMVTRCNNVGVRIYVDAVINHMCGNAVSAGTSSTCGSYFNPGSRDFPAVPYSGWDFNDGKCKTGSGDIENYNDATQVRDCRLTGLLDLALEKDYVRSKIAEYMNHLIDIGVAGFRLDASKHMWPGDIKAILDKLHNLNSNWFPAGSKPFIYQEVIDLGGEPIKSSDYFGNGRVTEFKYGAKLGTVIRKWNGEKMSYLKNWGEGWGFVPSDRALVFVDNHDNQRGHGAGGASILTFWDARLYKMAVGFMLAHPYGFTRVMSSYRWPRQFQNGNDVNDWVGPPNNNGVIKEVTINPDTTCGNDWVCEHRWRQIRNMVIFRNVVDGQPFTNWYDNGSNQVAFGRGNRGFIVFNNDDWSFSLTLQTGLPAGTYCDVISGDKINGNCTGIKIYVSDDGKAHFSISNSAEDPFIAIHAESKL
Excerpt: The α-amylase activity of the probe compounds determined using a method.
This study examined the inhibitory potential for the (3–6, 9, and 11) compounds against α-amylase enzyme. We applied six different concentrations (5,10,15,20,30, and 40) µg/mL for this test. These concentrations were plotted via the inhibition percentage to determine the IC50 (the concentration required to inhibit 50% of the enzyme) using the non-linear regression method.
- inhibition in-vitro of α-Amylase assay:
The α-amylase activity of the compounds were determined using a method in which 250 μL of each compound, or Metformin .HCl, dissolved in ethanol to obtain different concentrations (5, 10, 15, 20,30 and 40 μg/mL ), was mixed with 500 μL of α-amylase (2 U/mL ) in phosphate buffer (100 mM, pH 6.8) and incubated at 37 °C for 10 min. Thereafter, 50 μL of 1% starch, dissolved in the same buffer, was added to the mixture and the samples were incubated again at 37 °C. After 30 min, dinitrosalicylic acid (DNS) colour reagent (1 mL) was added. The (DNS) was prepared by adding 437mg of 3,5- dinitro salicylic acid in 20 mL distilled water to12 g of sodium potassium tartrate in 8 mL of 2 M NaOH, then added distilled water until the solution reach to 40 mL ). the samples were boiled for 10 min in water bath. For non-enzymatic reactions, the assays were performed with a blank containing all of the components except the enzyme. Each concentration was analyzed in three independent experiments run in triplicate.
The percent of inhibition Absorbance was then measured at 540 nm. The percent of inhibition of α-amylase was calculated as following by the formula below:
%inhibition= ((absorbance of blank_absorbance of compound)/absorbance of blank) *100. […]

[5] = 100 μ/Kg, in comparison with DC, 4th and 15th time durations
[6] = 250 μ/Kg, 30th time duration of treatment
[7] = 250 μ/Kg, 15th and 30th treatments

Compound | VLDL level ([1]; 4th, 15th and 30th days) | CH level ([1]; 30th day, 50 μ/Kg) | serum CH level decrease ([1]; 50 μ/Kg) | BGL ([2]; 50 μ/Kg, 4th, 15th and 30th) | BGL [2, 5] | TG level ([1]; 30th day, versus normal level, 50 μ/Kg) | Mortilaty [3] | IC50 DPPH radical scavenging [4] | IC50 (α-amylase) | reduction percentage of blood glucose level [2] | glucose level [2, 6] | VLDL level of serum ([1]; all experimental periods, compared to the normal rats) | VLDL ([1]; 4th and 30th day) | BGL ([2]; 50 μ/Kg, p < 0.05, all experiment periods compared to DC group) | glucose level ([2]; 100 μ/Kg, in comparison with DC, 4th, 15th and 30th time durations) | BGL [2, 7] | LDL value ([1]; 2nd and 15th days) | VLDL ([1]; 2nd to 15th days) | VLDL level ([1]; 30th day) | LDL value ([1]; 30th day)
Cc1nnc(NC(=S)SCC(=O)N2C(=O)S/C(=C/c3ccc4c(c3)OCO4)C2=O)s1 [Compound 9, 2-(5-(Benzo[d][1,3]dioxol-5-ylmethylene)-2,4-dioxothiazolidin-3-yl)-2-oxoethyl (5-Methyl-1,3,4-thiadiazol-2-yl) Carbamodithioate] | regulated the VLDL level to the normal level | lower CH level than the normal animals | 52% | moderate reduction in BGL | moderate decreases in BGL |  |  |  |  |  |  |  |  |  |  |  |  |  |  | 
O=C(O)CN1C(=O)SC(=Cc2ccc3c(c2)OCO3)C1=O [Compound 6, 2-(5-(benzo[d][1,3]dioxol-5-ylmethylene)-2,4-dioxothiazolidin-3-yl)acetic acid] | regulated the VLDL level to the normal level | lower CH level than the normal animals | 48% | moderate reduction in BGL | moderate decreases in BGL | decreased to the normal level | 0% | 10.78 mg/L (≈ 35.1 µM) | 33.4 µM | 69.55% | significant reduction in glucose level |  |  |  |  |  |  |  |  | 
O=C(CCl)N1C(=O)S/C(=C/c2ccc3c(c2)OCO3)C1=O [Compound 4] |  |  | 32% | moderate reduction in BGL | moderate decreases in BGL |  | 0% |  | 163 µM |  |  | below the normal value |  |  |  |  |  |  |  | 
O=C1CSC(=O)N1CC(=O)N1C(=O)SC(=Cc2ccc3c(c2)OCO3)C1=O [Compound 11, 5-(Benzo[d][1,3]dioxol-5-ylmethylene)-3-(2-(2,4-dioxothiazolidin-3-yl)acetyl) Thiazolidine-2,4-dione] |  | lower CH level than the normal animals | 43% |  |  |  |  | 11.16 mg/L (≈ 27.5 µM) | 49.2 µM | 66.95% | significant reduction in glucose level |  | regulated only the VLDL of infected rats to normal values | promising reduction in BGL | significant reduction in glucose level | promising decreases in BGL |  |  |  | 
O=C1NC(=O)/C(=C\c2ccc3c(c2)OCO3)S1 [Compound 3] |  | lower CH level than the normal animals | 40% |  |  |  | 0% |  | 173 µM |  |  |  |  |  |  |  | can regulate the LDL value to the normal value | failed to reach to control value for VLDL | almost reached to the normal VLDL level | failed to do so
CC(=O)CN1C(=O)SC(=Cc2ccc3c(c2)OCO3)C1=O [Compound 5, 5-(benzo[d][1,3]dioxol-5-ylmethylene)-3-(2-oxopropyl) thiazolidine-2,4-dione] | regulated the VLDL level to the normal level | lower CH level than the normal animals | 40% |  |  |  | 0% |  | 59 µM |  |  |  |  |  |  | promising decreases in BGL |  |  |  | 
